Source: US10188758B2, “Organic compounds” (INTRA-CELLULAR THERAPIES, INC., priority 2015, dated 2019)
Entries after “also recorded” stand apart in the source; their conditions may differ.

How the values were obtained:
human NET = human NET (Homo sapiens (Human), UniProt P23975); assay: Novascreen Norepinephrine, Transporter NET (h) binding, recombinant CHO cells, [3H]-Nisoxetine
Source text: (§1) The NET and SERT binding may be assayed to determine if the compounds of the disclosure specifically bind to NET or SERT. An exemplary procedure for assaying NET binding may be found in Raisman et al., Eur. Jrnl. Pharmacol. (1982) 78:345-351 and in Langer et al., Eur. Jrnl. Pharmac. (1981) 72:423. An exemplary procedure for assaying SERT binding may be found in D'Amato et al., Jrnl. Pharmcacol. & Exp. Ther. (1987) 242:364-371 and in Brown et al., Eur. Jrnl. Pharmac. (1986) 123:161-165. The contents of each of these references are incorporated by reference in their entirety.
(§2) The binding affinity of the compounds of the current disclosure is measured using a Novascreen against rodent NET, human NET and human SERT. Duloxetine is used as a positive control. Details of the Novascreen may be found in the following: • http://www.perkinelmer.com/Catalog/Product/ID/100-0123, • http://www.perkinelmer.com/Catalog/Product/ID/100-0048, • http://www.perkinelmer.com/Catalog/Product/ID/100-0146, and • http://www.perkinelmer.com/Catalog/Product/ID/100-0099.
For the binding affinity of the compounds of the current disclosure against NET, the following paramenters are used: • Assay Type: Binding • Species: Rat • Origin: Forebrain • Ligand: [3H]-Nisoxetine • Ligand [M]: 1.00E-09 • Kd (Binding Affinity): 9.00E-10 • Bmax: 10.5 fmol/mg tissue (wet weight) • Method: Radioactivity • Measurement: DPM • Assay Name: Norepinephrine, Transporter NET (h) • Assay Type: Binding • Species: Human • Origin: Recombinant/CHO cells • Ligand: [3H]-Nisoxetine • Ligand [M]: 1.00E-09 • Kd (Binding Affinity): 3.00E-09 • Bmax: 10 pmol/mg protein • Method: Radioactivity • Measurement: DPM

human SERT = human SERT (Homo sapiens (Human), UniProt P31645); assay: Novascreen Serotonin, Transporter SERT (h) binding, platelets, [3H]Citalopram, N-Methyl
Source text: as §1, §2
For the binding affinity of the compounds of the current disclosure for SERT, the following paramenters are used: • Assay Name: Serotonin, Transporter SERT (h) • Assay Type: Binding • Species: Human • Origin: Platelets • Ligand: [3H]Citalopram, N-Methyl • Ligand [M]: 7.00E-10 • Kd (Binding Affinity): 2.50E-09 • Bmax: 425 fmol/mg protein • Method: Radioactivity • Measurement: DPM

naloxone-induced flush = assay: Morphine-dependent rat model of hot flashes (naloxone-induced flush, tail skin temperature); assay type: in vivo; settings: 30 mg/kg p.o., FIG. 1
Source text: Morphine-dependent Rat Model: The effectiveness of the compounds of the present disclosure to reduce hot flashes may be evaluated by measuring its ability to reduce morphine-induced rise in TST. Ovariectomized rats may be subcutaneously injected with a vehicle (sterile water) once daily for 8 days. On day-4, two tablets of slow-release morphine may be implanted subcutaneously in the dorsal scapular region of the rats to induce morphine dependence. On day-5 and -6, morphine withdrawal may be induced by subcutaneous administration of 1.0 mg/Kg of naloxone, a general opioid antagonist. […] Ketamine (40 mg/Kg) may be injected after test compound to induce sedation so as to avoid temperature fluctuation due to stress associated with restriction of their movement and attachment of thermistor probe to the their tails. All drug- related effects may be compared to a vehicle control group which also receives ketamine. TST may be monitored continuously for 35 minutes. The average TST measured 25, 30 and 35 minutes prior to naloxone injection may be used to establish a baseline temperature. Hot flash reduction may be determined by evaluating the statistical differences between the baseline temperature and 15 minutes after naloxone treatment when the change in TST may be observed to be maximum.

Chain of human SERT (P31645 whole entry): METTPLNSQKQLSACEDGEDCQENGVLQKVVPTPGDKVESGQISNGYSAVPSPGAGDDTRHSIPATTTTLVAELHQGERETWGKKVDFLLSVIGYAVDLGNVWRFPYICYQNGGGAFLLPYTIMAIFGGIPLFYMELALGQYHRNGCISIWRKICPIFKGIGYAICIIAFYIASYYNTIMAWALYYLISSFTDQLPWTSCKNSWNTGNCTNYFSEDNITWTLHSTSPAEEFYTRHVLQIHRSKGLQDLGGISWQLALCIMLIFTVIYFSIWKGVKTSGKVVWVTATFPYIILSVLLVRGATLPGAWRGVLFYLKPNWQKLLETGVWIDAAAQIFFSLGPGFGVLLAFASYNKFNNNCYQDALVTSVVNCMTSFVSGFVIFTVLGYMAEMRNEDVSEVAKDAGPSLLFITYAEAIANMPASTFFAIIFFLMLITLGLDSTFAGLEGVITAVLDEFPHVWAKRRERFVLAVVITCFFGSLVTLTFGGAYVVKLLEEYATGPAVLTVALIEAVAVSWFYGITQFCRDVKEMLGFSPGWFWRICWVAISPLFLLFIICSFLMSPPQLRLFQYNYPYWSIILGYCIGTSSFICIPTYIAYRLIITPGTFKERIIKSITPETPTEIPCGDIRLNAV
Chain of human NET (P23975 whole entry): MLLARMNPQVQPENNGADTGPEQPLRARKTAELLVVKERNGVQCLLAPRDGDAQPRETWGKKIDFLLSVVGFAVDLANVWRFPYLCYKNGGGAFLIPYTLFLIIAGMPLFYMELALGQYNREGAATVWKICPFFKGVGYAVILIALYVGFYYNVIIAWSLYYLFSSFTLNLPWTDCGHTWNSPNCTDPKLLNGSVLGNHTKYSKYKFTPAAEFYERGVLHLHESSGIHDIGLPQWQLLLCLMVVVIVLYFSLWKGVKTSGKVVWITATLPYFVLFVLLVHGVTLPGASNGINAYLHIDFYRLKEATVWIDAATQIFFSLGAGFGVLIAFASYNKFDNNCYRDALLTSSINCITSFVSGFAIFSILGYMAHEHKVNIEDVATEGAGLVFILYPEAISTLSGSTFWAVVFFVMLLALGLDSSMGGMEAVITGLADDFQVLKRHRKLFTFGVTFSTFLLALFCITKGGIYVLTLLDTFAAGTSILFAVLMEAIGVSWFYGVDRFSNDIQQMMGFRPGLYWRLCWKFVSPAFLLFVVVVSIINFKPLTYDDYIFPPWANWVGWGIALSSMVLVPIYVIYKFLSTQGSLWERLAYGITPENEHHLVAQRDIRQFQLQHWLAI

Ki (human NET) [nM]	Ki (human SERT) [nM]	SMILES	reduction of naloxone-induced flush (naloxone-induced flush)
81.4	240	CCNCC[C@@H](Oc1cccnc1OC)c1ccccc1 [Compound 4, (R)-N-ethyl-3-(2-methoxypyridin-3-yloxy)-3-phenylpropan-1-amine]	–
37.3	579	CCNCC[C@@H](Oc1cccnc1OCC)c1ccccc1 [Compound 5, (R)-3-(2-ethoxypyridin-3-yloxy)-N-ethyl-3-phenylpropan-1-amine]	–
39	–	CNCC[C@@H](Oc1cccnc1OCCO)c1ccccc1 [Example 1, (R)-2-(3-(3-(Methylamino)-1-phenylpropoxy)pyridin-2-yloxy)ethanol]	–
4.2	318	CCOc1ncccc1O[C@H](CCNC)c1ccccc1 [Example 3, (R)-3-(2-Ethoxypyridin-3-yloxy)-N-methyl-3-phenylpropan-1-amine]	effective in reducing naloxone-induced flush; also recorded: effective in reducing naloxone-inducted flush

SMILES	Ki (human NET) [nM]	Ki (human SERT) [nM]	reduction of naloxone-induced flush (naloxone-induced flush)
CCOc1ncccc1O[C@H](CCN)c1ccccc1 [Example 2, (R)-3-Phenyl-3-(2-ethoxypyridin-3-yloxy)propan-1-amine]	69	–	–
